From ChEMBL document CHEMBL4834489 (ACS Med Chem Lett, 2021)

Columns and labels:
[1] = Clearance in human liver microsomes at 1 uM followed by NADPH addition measured up to 60 mins by LC-MS/MS analysis relative to hepatic blood flow; format: ADME, Microsome; details: read-out: CLH
[2] = Clearance in human hepatocytes at 1 uM measured up to 6 hrs by LC-MS/MS analysis relative to hepatic blood flow; format: ADME, cell-based, Hepatocyte; details: read-out: CLH

Structure (SMILES)	hepatic extraction ratio at 1 h, 1 µM [1]	hepatic extraction ratio at 6 h, 1 µM [2]
O=C1NCCc2c1sc1ncn(Cc3nc(C[C@H](O)c4ccc(Cl)cc4)no3)c(=O)c21	< 0.23	0.31
Cc1c(C(N)=O)sc2ncn(Cc3nc(C[C@H](O)c4cc5ccccc5o4)no3)c(=O)c12	< 0.23	0.36
NC(=O)c1sc2ncn(Cc3nc(C[C@H](O)c4ccc(Cl)cc4)no3)c(=O)c2c1Cl	< 0.23	0.39
Cc1c(C(N)=O)sc2ncn(Cc3nc(C[C@H](O)c4cc(F)cc(F)c4)no3)c(=O)c12	< 0.23	0.23
Cc1c(C(=O)NCC(F)F)sc2ncn(Cc3nc(C[C@H](O)c4ccc(Cl)cc4)no3)c(=O)c12	0.24	0.36

Second part, the molecule after the results:

hepatic extraction ratio at 1 h, 1 µM [1]	hepatic extraction ratio at 6 h, 1 µM [2]	Structure (SMILES)
< 0.23	0.18	Cc1c(C(=O)NCC(C)(C)O)sc2ncn(Cc3nc(C[C@H](O)c4ccc(Cl)cc4)no3)c(=O)c12
0.29	0.24	CNC(=O)c1sc2ncn(Cc3nc(C[C@H](O)c4ccc5c(c4)OCO5)no3)c(=O)c2c1C
< 0.23	0.29	CNC(=O)c1sc2ncn(Cc3nc(C[C@H](O)c4ccc(Cl)cc4)no3)c(=O)c2c1C
< 0.23	0.24	Cc1c(C(N)=O)sc2ncn(Cc3nc(C[C@H](O)c4ccc5c(c4)OCO5)no3)c(=O)c12
0.29	0.25	Cc1c(C(N)=O)sc2ncn(Cc3nc(C[C@H](O)c4ccc(Cl)cc4)no3)c(=O)c12
